Legend:
GST-JNK3 = GST-JNK3 (Homo sapiens, UniProt P53779); experiment: JNK3 in vitro assay (33P incorporation into c-Jun, SPA); format: biochemical; settings: recombinant pre-activated GST-JNK3, biotinylated GST-c-Jun, 2 μM 33γ-ATP, 120 min RT
Description: (§1) JNK2 and -3 in vitro Assays:
(§2) The phosphorylation of c-jun by JNK2 or JNK3 may be followed by monitoring the incorporation of ^33P into c-jun following the protocol below. The inhibitory activity of the compounds according to formula I, in respect of c-jun phosphorylation through JNK, is determined by calculating the phosphorylation activity of a JNK in the presence or absence of the test compounds according to formula I.
(§3) JNK3 and/or -2 assays are performed in 96 well MTT plates: incubation of 0.5 μg of recombinant, pre-activated GST-JNK3 or GST-JNK2 with 1 μg of recombinant, biotinylated GST-c-Jun and 2 μM ^33γ-ATP (2 nCi/μl), in the presence or absence of compounds according to formula I and in a reaction volume of 50 μl containing 50 mM Tris-HCl, pH 8.0; 10 mM MgCl2; 1 mM Dithiothreitol, and 100 μM NaVO4. The incubation is performed for 120 min. at R.T and stopped upon addition of 200 μl of a solution containing 250 μg of Streptavidine-coated SPA beads (Amersham, Inc.)*, 5 mM EDTA, 0.1% Triton X-100 and 50 μM ATP, in phosphate saline buffer.
(§4) After incubation for 60 minutes at RT, beads are sedimented by centrifugation at 1500×g for 5 minutes, resuspended in 200 μl of PBS containing 5 mM EDTA, 0.1% Triton X-100 and 50 μM ATP and the radioactivity measured in a scintillation β counter, following sedimentation of the beads as described above. By replacing biotinylated GST-c Jun with biotinylated GST-1ATF2 or biotinylated myelin basic protein, this assay may also be used to measure inhibition of pre-activated p38 and ERK MAP Kinases, respectively.
(§5) The values indicated in respect of JNK2 and 3 refer to the IC50 (μM), i.e. the amount necessary to achieve 50% inhibition either of JNK3 or JNK2.

GST-JNK2 = GST-JNK2 (Homo sapiens, UniProt P45984); experiment: JNK2 in vitro assay (33P incorporation into c-Jun, SPA); format: biochemical; settings: recombinant pre-activated GST-JNK2, biotinylated GST-c-Jun, 2 μM 33γ-ATP, 120 min RT
Chain of GST-JNK2 (P45984 whole entry): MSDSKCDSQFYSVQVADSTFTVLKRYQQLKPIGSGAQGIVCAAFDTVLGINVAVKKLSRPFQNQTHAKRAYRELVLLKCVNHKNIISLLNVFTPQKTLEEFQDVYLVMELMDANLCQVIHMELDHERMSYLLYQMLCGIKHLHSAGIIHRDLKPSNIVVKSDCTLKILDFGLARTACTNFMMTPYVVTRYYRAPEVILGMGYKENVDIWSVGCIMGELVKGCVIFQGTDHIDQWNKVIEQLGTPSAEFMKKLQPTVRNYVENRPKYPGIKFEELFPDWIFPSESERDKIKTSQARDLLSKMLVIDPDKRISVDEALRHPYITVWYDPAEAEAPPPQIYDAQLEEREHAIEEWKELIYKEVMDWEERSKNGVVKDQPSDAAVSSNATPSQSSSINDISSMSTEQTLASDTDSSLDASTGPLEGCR
Description: as §1, §2, §3, §4, §5

Chain of GST-JNK3 (P53779 whole entry): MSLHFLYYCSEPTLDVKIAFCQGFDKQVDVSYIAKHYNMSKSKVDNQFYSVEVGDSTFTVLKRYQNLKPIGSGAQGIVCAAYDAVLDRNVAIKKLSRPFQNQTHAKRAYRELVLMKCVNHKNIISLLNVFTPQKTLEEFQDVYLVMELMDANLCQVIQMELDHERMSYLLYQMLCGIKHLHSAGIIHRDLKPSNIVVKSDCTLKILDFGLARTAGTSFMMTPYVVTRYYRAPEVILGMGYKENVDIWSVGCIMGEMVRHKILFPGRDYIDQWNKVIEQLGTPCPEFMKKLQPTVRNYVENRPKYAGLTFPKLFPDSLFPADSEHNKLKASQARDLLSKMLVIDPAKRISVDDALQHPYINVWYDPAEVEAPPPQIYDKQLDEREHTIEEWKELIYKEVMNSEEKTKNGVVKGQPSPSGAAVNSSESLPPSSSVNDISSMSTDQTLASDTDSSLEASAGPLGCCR

Compound	IC50 (GST-JNK3) [nM]	IC50 (GST-JNK2) [nM]
O=C(NCc1cccc(S(=O)(=O)N2CCC(Nc3cccc(S(=O)(=O)C(F)(F)F)c3)CC2)c1)c1ccc(Cl)cc1 [Example 3, 4-chloro-N-{3-[(4-{3-[(trifluoromethyl)sulfonyl]anilino}-1-piperidinyl)sulfonyl]benzyl}benzamide]	< 400	< 700
O=C(NCc1ccc(S(=O)(=O)N2CCC(NCCc3cccc(C(F)(F)F)c3)CC2)cc1)c1ccc(Cl)cc1 [Example 11, 4-chloro-N-(4-{[4-({2-[3-(trifluoromethyl)phenyl]ethyl}amino)-1-piperidinyl]sulfonyl}benzyl)benzamide]	< 400	< 700
CCCCCCNC1CCN(S(=O)(=O)c2ccc(NC(=O)c3ccc(Cl)cc3)cc2)C1 (centres unmarked) [Example 28, 4-chloro-N-(4-{[3-(hexylamino)-1-pyrrolidinyl]sulfonyl}phenyl)benzamide]	< 400	< 700
O=C(NCc1ccc(S(=O)(=O)N2CCC(NCCc3cccc(C(F)(F)F)c3)C2)cc1)c1ccc(Cl)cc1 (centres unmarked) [Example 31, 4-chloro-N-(4-{[3-({2-[3-(trifluoromethyl)phenyl]ethyl)amino)-1-pyrrolidinyl]sulfonyl}benzyl)benzamide]	< 400	< 700

From patent publication US7417058B2, “Pharmaceutically active benzsulfonamide derivatives as inhibitors of protein junkinases” (Laboratoires Serono S.A., priority 2000, dated 2008)
